Data reported in patent publication US12059498B2, “Preparation and storage of liposomal RNA formulations suitable for therapy” (BioNTech SE, priority 2017, dated 2024).
Entries after “also recorded” stand apart in the source; their conditions may differ.

Experiment: Freezing of RNA lipoplexes with cryoprotectants, particle size
Settings: RNA lipoplexes frozen with increasing concentration of the compound
Excerpt: Methods: Different compounds representative for monosaccharides (glucose and sorbitol), disaccharides (sucrose and trehalose), amino acids (arginine, prolin), triols (glycerin) as well as cryoprotectant systems containing mixtures of different sugars (mannitol and sucrose) were investigated in order to identify suited cryoprotectants (FIGS. 25 and 26). Therefore RNA lipoplexes were frozen in the presence of increasing concentration of these compounds. In order to identify minimum content of cryoprotectant at a certain concentration of NaCl, RNA lipoplexes were frozen in the presence of increasing amounts of sucrose or trehalose as representative cryoprotectants (Table 7). The samples were initially frozen a single time in order to determine the concentration range of cryoprotectant to be investigated in detail. In a third experiment, the efficacy of stabilization of the particle size was challenged by freezing of the RNA lipoplexes up to 10 times in the presence of the cryoprotectant trehalose (Table 8).

Structure (SMILES) | stabilization of RNA lipoplexes during freezing (as cryoprotectant)
OCC(O)CO [Glycerin] | can be used as cryoprotectants
N=C(N)NCCC[C@H](N)C(=O)O [arginine] | clearly destabilizes the RNA lipoplexes
OC[C@@H](O)[C@@H](O)[C@H](O)[C@@H](O)CO [sorbitol] | can be used as cryoprotectants; also recorded: lower
